From PubChem BioAssay (NCI) come the findings set out here.

Test systems include NCI-H23 lung; SF-539 CNS; RXF 393 renal; SK-MEL-5 melanoma; SF-268 CNS; MOLT-4 leukemia; TK-10 renal; OVCAR-3 ovarian; SR leukemia; BT-549 breast.
Assay in all cases: NCI-60 cell line screen, 48 h

Several values for one entry are separate records, joined by “and”; a condition that tells them apart may be missing. Equal entries are not always repeated.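 Grown in 96-well plates, cells were treated for 48 hours with each compound at five concentrations. Insufficient inhibition: endpoint recorded as highest concentration tested. GI50 = concentration required for 50% inhibition of growth. Definition used: TGI = concentration required for complete inhibition of growth.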

Turning to `NC(=O)CC(N)C(=O)NC(Cc1ccccc1)C(=O)NC(Cc1ccccc1)NC(=O)C(Cc1c[nH]c2ccccc12)C(=O)O` (configuration not stated), the TGI with NCI-H23 lung, in the test on SF-539 CNS, in the test on RXF 393 renal, with SK-MEL-5 melanoma, in the test on SF-268 CNS and in the test with MOLT-4 leukemia was greater than 100 µM in each case. In addition, the TGI with TK-10 renal and in the test on OVCAR-3 ovarian was greater than 100 µM throughout.

For the compound `CCSc1nc(=S)n(-c2ccccc2)c(C)c1C(C)=O`, the TGI in the test with SR leukemia, in the test with NCI-H23 lung, in the test on SF-539 CNS, with RXF 393 renal, in the test with SK-MEL-5 melanoma and with SF-268 CNS was greater than 100 µM each time. Further, the TGI with MOLT-4 leukemia, with TK-10 renal and with OVCAR-3 ovarian was greater than 100 µM throughout.

With `COC(=O)CCNc1c2ccccc2nc2cccc([N+](=O)[O-])c12`, the GI50 in the test on NCI-H23 lung is 1.26 µM; in the test with SF-539 CNS, 0.00238 µM and 0.0131 µM; in the test with MOLT-4 leukemia it was 0.00107 µM; in the test on TK-10 renal it was 0.00304 µM. The TGI is 0.0115 µM and 0.0395 µM in the test on SF-539 CNS; 0.00217 µM in the test on RXF 393 renal; 0.117 µM and 0.0124 µM in the test with MOLT-4 leukemia; 0.0312 µM with TK-10 renal; 0.00397 µM in the test with OVCAR-3 ovarian.

Turning to `CCCCc1ccc(Nc2nc(Cl)c3ccn(C4CC(Oc5ccc(C)cc5)C(COc5ccc(C)cc5)O4)c3n2)cc1` (configuration not stated), the TGI was 30.8 µM in the test on NCI-H23 lung; greater than 46.4 µM in the test on SF-539 CNS; 17.3 µM in the test on BT-549 breast; greater than 46.4 µM with RXF 393 renal; greater than 46.4 µM in the test with SK-MEL-5 melanoma; greater than 100 µM with SF-268 CNS. The TGI in the test with MOLT-4 leukemia was greater than 46.4 µM; in the test on TK-10 renal, 43.4 µM; in the test with OVCAR-3 ovarian it was greater than 100 µM.

With `Cc1nc2c(cc1OCc1ccccc1)C(=O)C1=C(C2=O)C2OC(=O)CC2OC1(C)C` (configuration not stated), the TGI in the test on NCI-H23 lung was 2.32 µM; with SF-539 CNS, 2.04 µM; in the test with BT-549 breast, 1.88 µM; in the test on RXF 393 renal, 1.64 µM; in the test with SK-MEL-5 melanoma it was 2.61 µM; with MOLT-4 leukemia, 87.9 µM. Besides, the TGI with TK-10 renal worked out at 2.75 µM.

In the case of `CCCCCCCCCCCCCC[n+]1ccc(C(N)=O)cc1`, the GI50 in the test on NCI-H23 lung was 2.42 µM; with MOLT-4 leukemia it was 2.54 µM; with TK-10 renal, 1.18 µM; in the test with OVCAR-3 ovarian, 1.54 µM. Further, the TGI in the test with NCI-H23 lung is 15.2 µM; in the test on MOLT-4 leukemia it was greater than 100 µM; in the test on TK-10 renal it was 2.79 µM; in the test with OVCAR-3 ovarian, 5.39 µM.

For `O=[N+]([O-])/C=C(\CS(=O)(=O)c1ccccc1)c1ccc2c(c1)OCO2`, the TGI in the test on SR leukemia was greater than 100 µM; in the test with NCI-H23 lung, 36.3 µM; in the test on SF-539 CNS it was greater than 100 µM; in the test with RXF 393 renal, greater than 100 µM; in the test with SK-MEL-5 melanoma, greater than 100 µM; in the test on SF-268 CNS it was greater than 100 µM. For the same compound, the TGI in the test with MOLT-4 leukemia and in the test on OVCAR-3 ovarian was greater than 100 µM throughout.

Take `O=P(Nc1ccccc1)(Oc1ccccc1)N(CCCl)CCCl` (configuration not stated): the TGI in the test on SR leukemia, with NCI-H23 lung, in the test on SF-539 CNS, in the test on SK-MEL-5 melanoma, with SF-268 CNS and with MOLT-4 leukemia was greater than 100 µM each time. The TGI in the test on TK-10 renal and in the test with OVCAR-3 ovarian was greater than 100 µM throughout.

On to `N#Cc1cc(Sc2ccc(N)c(C#N)c2)ccc1N`, for which the TGI is 27.9 µM with SF-539 CNS; greater than 100 µM in the test with BT-549 breast; greater than 100 µM in the test on RXF 393 renal; 39 µM in the test with SK-MEL-5 melanoma; 59 µM in the test on SF-268 CNS; greater than 100 µM with MOLT-4 leukemia. Moreover, the TGI in the test with TK-10 renal and in the test on OVCAR-3 ovarian was greater than 100 µM in each case.

For `COc1c(Br)cc2ccccc2c1-c1c(OC)c(Br)cc2ccccc12`, the TGI with NCI-H23 lung, in the test on SF-539 CNS, in the test on RXF 393 renal, in the test with SK-MEL-5 melanoma, with SF-268 CNS and in the test on MOLT-4 leukemia was greater than 100 µM each time. Besides, the TGI with TK-10 renal and in the test on OVCAR-3 ovarian was greater than 100 µM each time.

With `CC(C)C(=O)/C=C/S/C=C/C(=O)C(C)C`, the TGI in the test on NCI-H23 lung was 7.57 µM; in the test on SF-539 CNS it was 60.2 µM; in the test with RXF 393 renal, 19.4 µM; in the test with SK-MEL-5 melanoma, 21.7 µM; in the test on SF-268 CNS it was greater than 100 µM; in the test with TK-10 renal, greater than 100 µM. Besides, the TGI in the test with OVCAR-3 ovarian worked out at 14.9 µM.

For the compound `COC(=O)CNC(=O)CCC(C)[C@H]1CCC2C3C(C[C@H](OC(C)=O)[C@@]21C)[C@@]1(C)CCC2(C[C@H]1C[C@H]3OC(C)=O)OOC1(CC[C@]3(C)C4C[C@H](OC(C)=O)[C@@]5(C)C(CC[C@@H]5C(C)CCC(=O)NCC(=O)OC)C4[C@H](OC(C)=O)C[C@@H]3C1)OO2` (some centres not stated), the TGI in the test with NCI-H23 lung was 3.66 µM; in the test on SF-539 CNS it was 1.8 µM; with BT-549 breast it was greater than 50 µM; in the test with SF-268 CNS, 16.1 µM; in the test on TK-10 renal, 2.55 µM; with OVCAR-3 ovarian it was 15.9 µM.

`O[C@@H]1CCC[C@@H]2NC[C@@H](c3ccc4c(c3)OCO4)[C@H]12`: the TGI with SR leukemia, with NCI-H23 lung, in the test with SF-539 CNS, in the test on RXF 393 renal, with SK-MEL-5 melanoma and with SF-268 CNS was greater than 100 µM each time. Further, the TGI with MOLT-4 leukemia, with TK-10 renal and in the test with OVCAR-3 ovarian was greater than 100 µM each time.

Turning to `Cc1cc(Nc2ccc(NS(C)(=O)=O)cc2)c2c(ccc3nccc32)[nH]1`, the TGI in the test on NCI-H23 lung is 49.6 µM; with BT-549 breast, 43.9 µM; in the test with SK-MEL-5 melanoma, 29.1 µM; in the test on SF-268 CNS it was 23 µM; with MOLT-4 leukemia, 11.8 µM; in the test on TK-10 renal, greater than 100 µM. This compound also gave a TGI in the test on OVCAR-3 ovarian of 29.1 µM.

With `C=CCOC(=O)N1c2ccc(O)cc2[C@@]23O[C@@]24[C@@H]1C#C/C=C\C#C[C@]3(O)C(OC)(OC)C[C@@H]4C`, the TGI is 62.2 µM in the test with SR leukemia; 93 µM in the test on NCI-H23 lung; 40.6 µM in the test on SF-539 CNS; greater than 100 µM in the test on RXF 393 renal; 27.4 µM with SK-MEL-5 melanoma; greater than 100 µM in the test on SF-268 CNS. The TGI in the test on MOLT-4 leukemia and in the test on TK-10 renal was greater than 100 µM each time.

On to `COC(=O)c1c2c(cc3c1CC1(Cc4cc5c(c(C(C)=O)c4C1)CCCC5)C3)CCCC2` (configuration not stated), for which the TGI in the test with SR leukemia was 21 µM; in the test with NCI-H23 lung, greater than 100 µM; in the test on SF-539 CNS it was greater than 100 µM; with RXF 393 renal, greater than 100 µM; in the test with SK-MEL-5 melanoma, greater than 100 µM; in the test on TK-10 renal, greater than 100 µM. This compound returned a TGI in the test with OVCAR-3 ovarian greater than 100 µM.

Turning to `CC(=O)O[C@H]1C[C@@H](OC(C)=O)[C@@](C)(O)[C@@H]2[C@@H](OC(C)=O)[C@@]3(O)[C@H](/C=C(/CO)[C@H]4O[C@H]4[C@@H](OC(C)=O)[C@@]12C)OC(=O)[C@@H]3C`, the TGI in the test with NCI-H23 lung is greater than 25 µM; in the test on BT-549 breast, greater than 25 µM; in the test on RXF 393 renal, 10.7 µM; with SK-MEL-5 melanoma, greater than 25 µM; in the test on SF-268 CNS it was greater than 25 µM; with MOLT-4 leukemia, greater than 25 µM. The figures for the TGI with TK-10 renal and in the test on OVCAR-3 ovarian were greater than 25 µM and 15.5 µM, respectively.

In the case of `CCOC(=O)CCN1C(=O)C(=O)N(c2ccc(OC)cc2)C1=S`, the TGI in the test with SR leukemia, in the test with NCI-H23 lung, in the test on SF-539 CNS, with RXF 393 renal, in the test with SK-MEL-5 melanoma and with SF-268 CNS was greater than 100 µM each time. Besides, the TGI with MOLT-4 leukemia and in the test with TK-10 renal was greater than 100 µM in each case.

In the case of `C#C[C@@]1(O)CCCC2=CC3(CC[C@]21C)SCCS3`, the TGI in the test on SR leukemia, with NCI-H23 lung, with SF-539 CNS, with RXF 393 renal, in the test with SK-MEL-5 melanoma and in the test with SF-268 CNS was greater than 100 µM in each case. The TGI in the test on MOLT-4 leukemia, with TK-10 renal and with OVCAR-3 ovarian was greater than 100 µM each time.

On to `C=CCOC(OCC=C)/C(Br)=C/C`, for which the TGI in the test with SR leukemia was greater than 100 µM; in the test with NCI-H23 lung, greater than 100 µM; with RXF 393 renal it was greater than 100 µM; with SK-MEL-5 melanoma it was greater than 100 µM; in the test on SF-268 CNS it was 75.2 µM; with TK-10 renal, greater than 100 µM. This compound registered a TGI in the test with OVCAR-3 ovarian greater than 100 µM.

With `C=CC(C)C1(CCCOCc2ccccc2)C(=S)N2CCC3(CC24CCCC14)OCCO3` (configuration not stated), the TGI in the test on NCI-H23 lung, in the test on RXF 393 renal, in the test on SF-268 CNS, with MOLT-4 leukemia, with TK-10 renal and with OVCAR-3 ovarian was greater than 100 µM each time.

For `COC(=O)C1CCC(=O)N1C(c1cc(OC)c(OC)c(OC)c1)c1cccc2ccccc12` (configuration not stated), the TGI in the test with SR leukemia, with SF-539 CNS, with SF-268 CNS, with MOLT-4 leukemia, in the test with TK-10 renal and in the test with OVCAR-3 ovarian was greater than 100 µM in each case.

Turning to `CNC(=O)SCC(NC(=O)CCC(N)C(=O)O)C(=O)NCC(=O)O` (configuration not stated), the TGI in the test on NCI-H23 lung, with SF-539 CNS, in the test with RXF 393 renal, with SK-MEL-5 melanoma, in the test with SF-268 CNS and in the test with MOLT-4 leukemia was greater than 100 µM in each case. The same compound registered a TGI in the test with OVCAR-3 ovarian greater than 100 µM.
